Here are results for two compounds from PMC3257419 (Journal of Medicinal Chemistry, 2011).

Data set [1] has as its system cocaine-induced increases in synaptic dopamine. Nature of the data set: MicroPET imaging of [11C]-raclopride binding after cocaine. It counts as in vivo, rat. The following applies: cocaine alone, average.
The next data set relates to subjects. The note with it: trial of 103 subjects, placebo 7.5%; cited from earlier work.
For another data set, the system named is patients. The following applies: following chronic administration; cited from earlier work.
The next data set relates to alanine aminotransferase. The following applies: cited from earlier work.
Data set [2] has as its system succinic semialdehyde dehydrogenase. The note with it: cited from earlier work.
In a further data set the test system is white matter of the CNS. The following applies: characterized as intramyelinic edema; cited from earlier work.
The test system of a further data set is GABA transport. The note with it: cited from earlier work.
A further data set concerns Sprague-Dawley rats. The following applies: Vigabatrin/Cocaine, vigabatrin 300 mg/kg; ref Dewey et al.[7]; cited from earlier work.

As to `COC(=O)[C@H]1[C@@H](OC(=O)c2ccccc2)C[C@@H]2CC[C@H]1N2C` [Cocaine, reference compound], the “reduction of [11C]-raclopride binding” value in data set [1] came to 22%.
On to `C=CC(N)CCC(=O)O` (stereo not drawn) [Vigabatrin, vigabatrin], for which the “implicit times of the ERGs” value with Wistar albino rats (CPP-115 20 mg/kg, vigabatrin 200 mg/kg) is listed as “little or no drug effect”. Besides, the “clinical observation in the first three weeks of treatment” value in the data set on Wistar albino rats (CPP-115 20 mg/kg, vigabatrin 200 mg/kg daily i.p.) is reported as “sedative effects”. For the same compound, the “10 Hz flicker ERGs compared to both CPP-115 and controls” value in the data set with Wistar albino rats (both sexes, both time points, data not shown) is given as “significantly lower”. Also, in the data set on Wistar albino rats (females, 200 mg/kg, data not shown), the “rod, mesopic, and cone b-wave implicit times compared to controls or CPP-115” value was “significantly increased”. Also, in the data set with subjects, the “subjects who achieved abstinence” value is given as 28%. The “patients with visual field defects (VFDs)” value in the data set with patients is 25–50%. The “effect on alanine aminotransferase activity in vivo” value in the data set with alanine aminotransferase is recorded as “reduce activities”. Also, the “effect on succinic semialdehyde dehydrogenase activity in vivo” value in data set [2] is “reduce activities”. The CNS histopathological finding result in the data set on white matter of the CNS is “microvacuolization in the white matter of the CNS”. The “action on GABA reuptake” value in the data set on GABA transport was “GABA reuptake inhibitor”. Moreover, in the data set on Sprague-Dawley rats, the “Time in chamber (min) unpaired” value is given as 7.1 ± 0.6 min.
